Laboratory results published in patent publication EP3072956A1, “Selective culture medium for polymyxin-resistant, gram-negative bacteria” (priority 2015, dated 2016).

Assays:
Assay in all cases: MIC determination by broth microdilution (MHB-CA, CLSI)
Assay type in all cases: cell-based
[1] = system: B. cepacia; settings: strain Bcep
Description: (§1) Determination of MIC values were performed by broth microdilution in Cation-Adjusted Mueller-Hinton broth (MHB-CA) according to the CLSI guidelines (Clinical and Laboratory Standards Institute). Polymyxin B and colistin (Sigma-Aldrich, Saint-Louis) were tested with or without Tween 80 over a range dilution from 0.12 to 128 µg/ml. The surfactant Tween 80, at a final concentration of 0.002%, prevents the binding of polymyxins to multi-array plastic panel. Actually, the use of Tween for determination of MIC of polymyxins is still debatable. MHB-CA broth and 5.10^5 CFU/ml of each tested strain were distributed in each well. Following the EUCAST breakpoints, strains were characterized as susceptible or resistant to polymyxins.

[2] = system: M. morganii; settings: strain Mmor
Description: as §1

[3] = system: P. vulgaris; settings: strain Pvul
Description: as §1

Measured: MIC

polymyxin B
>128 µg/mL: [1]; With Tween80 | [1]; Without Tween80 | [2]; With Tween80 | [2]; Without Tween80 | [3]; With Tween80 | [3]; Without Tween80

colistin
>128 µg/mL: [1]; With Tween80 | [1]; Without Tween80 | [2]; With Tween80 | [2]; Without Tween80 | [3]; With Tween80 | [3]; Without Tween80
